Assays:
MATIN [1] = experiment: Post-emergence herbicidal action against MATIN; format: in vivo, Matricaria inodora
In short: (§1)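 Greenhouse pot plants in sandy loam were sprayed at the one-leaf stage, 2 to 3 weeks after sowing, with WP or EC formulations as aqueous suspension or emulsion (600 to 800 l/ha water, 0.2% wetting agent). About 3 weeks later, damage was scored visually against untreated controls as % action (100% = dead, 0% = like control).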

ECHCG [2] = experiment: Post-emergence herbicidal action against ECHCG; format: in vivo, Echinochloa crus-galli
In short: as §1

PHBPU [3] = experiment: Pre-emergence herbicidal action against PHBPU; format: in vivo, Pharbitis purpurea
In short: (§2)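 Visual rating at 3 weeks vs untreated pots; 0–100% scale, 100% = plants died. Treatment: aqueous WP/EC spray onto covering soil, 600–800 l/ha, 0.2% wetter, seeds in sandy loam.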

SETVI [4] = experiment: Post-emergence herbicidal action against SETVI; format: in vivo, Setaria viridis
In short: as §1

VIOTR [5] = experiment: Pre-emergence herbicidal action against VIOTR; format: in vivo, Viola tricolor
In short: as §2

ABUTH [6] = experiment: Pre-emergence herbicidal action against ABUTH; format: in vivo, Abutilon theophrasti; details: for Pre-emergence action against ABUTH (herbicidal activity): 80 g/ha, scored visually after 3 weeks vs untreated controls (100% = plants have died, 0% = like control plants); for Pre-emergence action against ABUTH (herbicidal activity in percent): dosage 20 g/ha, scored visually after 3 weeks vs untreated controls, 100% = plants have died, 0% = like control plants
In short: as §2

ECHCG [7] = experiment: Pre-emergence herbicidal action against ECHCG; format: in vivo, Echinochloa crus-galli
In short: as §2

AVEFA [8] = experiment: Post-emergence herbicidal action against AVEFA; format: in vivo, Avena fatua; details: 20 g/ha, visual assessment about 3 weeks after treatment, 100% = plants have died, 0% = like control plants
In short: as §1

POLCO = experiment: Pre-emergence herbicidal action against POLCO; format: in vivo, Polygonum convolvulus; details: dosage 80 g/ha
In short: as §2

MATIN [9] = experiment: Pre-emergence herbicidal action against MATIN; format: in vivo, Matricaria inodora
In short: as §2

VIOTR [10] = experiment: Post-emergence herbicidal action against VIOTR; format: in vivo, Viola tricolor
In short: as §1

PHBPU [11] = experiment: Post-emergence herbicidal action against PHBPU; format: in vivo, Pharbitis purpurea
In short: as §1

ALOMY [12] = experiment: Post-emergence herbicidal action against ALOMY; format: in vivo, Alopecurus myosuroides; details: visual assessment about 3 weeks after treatment vs untreated controls
In short: as §1

AMARE [13] = experiment: Pre-emergence herbicidal action against AMARE; format: in vivo, Amaranthus retroflexus
In short: as §2

ABUTH [14] = experiment: Post-emergence herbicidal action against ABUTH; format: in vivo, Abutilon theophrasti; details: visual assessment about 3 weeks after treatment vs untreated controls
In short: as §1

VERPE [15] = experiment: Pre-emergence herbicidal action against VERPE; format: in vivo, Veronica persica; details: dosage 80 g/ha
In short: as §2

VERPE [16] = experiment: Post-emergence herbicidal action against VERPE; format: in vivo, Veronica persica; details: 20 g/ha
In short: as §1

DIGSA [17] = experiment: Post-emergence herbicidal action against DIGSA; format: in vivo, Digitaria sanguinalis; details: for Post-emergence action against DIGSA: 20 g/ha
In short: as §1

DIGSA [18] = experiment: Pre-emergence herbicidal action against DIGSA; format: in vivo, Digitaria sanguinalis
In short: as §2

AVEFA [19] = experiment: Pre-emergence herbicidal action against AVEFA; format: in vivo, Avena fatua; details: for Pre-emergence action against AVEFA in %: 80 g/ha
In short: as §2

SETVI [20] = experiment: Pre-emergence herbicidal action against SETVI; format: in vivo, Setaria viridis
In short: as §2

AMARE [21] = experiment: Post-emergence herbicidal action against AMARE; format: in vivo, Amaranthus retroflexus; details: 20 g/ha, visual assessment about 3 weeks after treatment, 100% = plants have died, 0% = like control plants
In short: as §1

ALOMY [22] = experiment: Pre-emergence herbicidal action against ALOMY; format: in vivo, Alopecurus myosuroides; details: 80 g/ha, pre-emergence, scored visually after 3 weeks vs untreated controls (100% = plants have died, 0% = like control plants)
In short: as §2

[23] = 20 g/ha, scored visually after 3 weeks vs untreated controls, 100% = plants have died, 0% = like control plants
[24] = 80 g/ha, scored visually after 3 weeks vs untreated controls (100% = plants have died, 0% = like control plants)

SMILES | Post-emergence action against MATIN in % (MATIN [1]; dosage 20 g/ha) [%] | Post-emergence action against ECHCG in % (ECHCG [2]; dosage 20 g/ha) [%] | Pre-emergence action against PHBPU in % (PHBPU [3]; dosage 80 g/ha) [%] | Post-emergence action against SETVI in % (SETVI [4]; dosage 20 g/ha) [%] | Pre-emergence action against VIOTR in % (VIOTR [5]; dosage 20 g/ha) [%] | Pre-emergence action against VIOTR in % (VIOTR [5]; dosage 80 g/ha) [%] | Pre-emergence action against ABUTH (herbicidal activity) (ABUTH [6]) [%] | Pre-emergence action against ABUTH (herbicidal activity in percent) (ABUTH [6]) [%] | Pre-emergence action against ECHCG in % (ECHCG [7]; 80 g/ha) [%] | Post-emergence action at 20 g/ha against AVEFA in % (AVEFA [8]) [%] | Pre-emergence action against POLCO in % (POLCO) [%] | Pre-emergence action against MATIN in % (MATIN [9]; dosage 20 g/ha) [%] | Pre-emergence action against MATIN in % (MATIN [9]; dosage 80 g/ha) [%] | Post-emergence action against VIOTR in % (VIOTR [10]; 5 g/ha) [%] | Post-emergence action against VIOTR in % (VIOTR [10]; 20 g/ha) [%] | Post-emergence action against PHBPU in % (PHBPU [11]; dosage 20 g/ha) [%] | Post-emergence action against ALOMY in % (ALOMY [12]; dosage 20 g/ha) [%] | Pre-emergence action against AMARE in % (AMARE [13]; [23]) [%] | Pre-emergence action against AMARE in % (AMARE [13]; [24]) [%] | Post-emergence action against ABUTH in % (ABUTH [14]; dosage 20 g/ha) [%] | other results
CCn1nnnc1NC(=O)c1ccc(C(F)(F)F)c(C(=O)NCC(F)F)c1C1CC1 [Example 2-291] | 90 | 80 | 90 | 90 | 100 | 100 | 100 | 100 | 90 | 90 | 80 | 90 | 100 | 80 | 90 | 90 | 80 | 100 | 100 | 80 | Post-emergence action against MATIN in % (MATIN [1]; dosage 5 g/ha): 80%; Post-emergence action against ECHCG in % (ECHCG [2]; dosage 5 g/ha): 80%; Pre-emergence action against PHBPU in % (PHBPU [3]; dosage 20 g/ha): 80%; Post-emergence action against PHBPU in % (PHBPU [11]; dosage 5 g/ha): 80%; Post-emergence action against ALOMY in % (ALOMY [12]; dosage 5 g/ha): 80%; Post-emergence action against ABUTH in % (ABUTH [14]; dosage 5 g/ha): 80%; Pre-emergence action against VERPE in % (VERPE [15]): 90%; Post-emergence action against VERPE in % (VERPE [16]): 80%; Post-emergence action against DIGSA in % (DIGSA [17]; 5 g/ha): 90%; Post-emergence action against DIGSA (DIGSA [17]): 100%; Pre-emergence action against DIGSA in % (DIGSA [18]; dosage 20 g/ha): 100%; Pre-emergence action against DIGSA in % (DIGSA [18]; dosage 80 g/ha): 100%; Pre-emergence action against AVEFA (AVEFA [19]; 20 g/ha, scored visually after 3 weeks, 100% = plants have died, 0% = like control plants): 80%; Pre-emergence action against AVEFA in % (AVEFA [19]): 80%; Pre-emergence action against SETVI in % (SETVI [20]; dosage 80 g/ha): 100%; Post-emergence action at 20 g/ha against AMARE in % (AMARE [21]): 90%; Pre-emergence action against ALOMY (herbicidal activity) (ALOMY [22]): 80%
CCNC(=O)c1c(C(F)F)ccc(C(=O)Nc2nnnn2CC)c1Br [Example 2-226] | 80 | 90 | 100 | 100 | 100 | 100 | 80 | 80 | 100 | 80 | 80 | 90 | 100 | 90 | 100 | 80 | 90 | 100 | 100 | 90 | Post-emergence action against SETVI in % (SETVI [4]; dosage 5 g/ha): 100%; Pre-emergence action against ECHCG in % (ECHCG [7]; 20 g/ha): 100%; Pre-emergence action against VERPE in % (VERPE [15]): 100%; Post-emergence action against VERPE in % (VERPE [16]): 90%; Post-emergence action against DIGSA (DIGSA [17]): 80%; Pre-emergence action against AVEFA in % (AVEFA [19]): 100%; Pre-emergence action against SETVI in % (SETVI [20]; dosage 20 g/ha): 80%; Pre-emergence action against SETVI in % (SETVI [20]; dosage 80 g/ha): 100%; Post-emergence action at 20 g/ha against AMARE in % (AMARE [21]): 100%; Pre-emergence action against ALOMY (herbicidal activity) (ALOMY [22]): 90%

— patent US12655116B2, “Substituted isophthalic acid diamides” (Bayer Aktiengesellschaft, priority 2020, dated 2026)
